Results as given in patent US8329863B2, “Gonadotropin releasing hormone antagonists” (Oakwood Laboratories, LLC, priority 2004, dated 2012).
Read-outs that look alike come from different tables or passages of the source. Square brackets hold non-standard residues; d marks the D form. Peptide text beside a SMILES is read from it. * marks the point of attachment. dPhe(4-Cl) = N[C@H](Cc1ccc(Cl)cc1)C(=O)O; Nicotinoyl(6-NH2) = Nc1ccc(C(=O)*)cn1; d1Nal = N[C@H](Cc1cccc2ccccc12)C(=O)O; Lys(iPr) = CC(C)NCCCC[C@H](N)C(=O)O; d3Pal = N[C@H](Cc1cccnc1)C(=O)O; Picolinoyl = O=C(c1ccccn1)*; dOrn = NCCC[C@@H](N)C(=O)O

Legend:
[1] = Water solubility at room temperature; type: physicochemical
Method: Solubility of the novel GnRH antagonist was compared with that of orntide acetate at room temperature. In this experiment, 50 mg of the novel GnRH antagonist was weighed into a small glass container and 2 mL of purified water was added to it. […] An additional 3 mL of water was added, the solution mixed, and the pH was determined: 5.4. The same procedure was used to test the solubility of orntide acetate (known in the art as ornirelix).
Separately, another 50 mg aliquot was weighed out and 1 ml of water was added. This also dissolved. This is 50 mg/mL in concentration, which is 10 times what is possible to dissolve with orntide acetate.

testosterone = test: Testosterone suppression in vivo in the standard experimental rat model; parameters: species or system male Sprague Dawley rats; details: subcutaneous
Method: Briefly, male Sprague Dawley rats weighing approximately 300 g were purchased from Harlan (Indianapolis, Ind.) and used immediately after the quarantine period required by a University of Kentucky Animal Research Facility approved protocol.
The evaluation was conducted in two groups of rats. Group 1 included 6 rats to be administered with the novel GnRH antagonist. The other group was a control group consisting of 2 rats. The novel GnRH antagonist was administered subcutaneously (scapulae). Blood samples (1 mL) for testosterone level determinations were collected from the tail vein at 0, 1, 3, 6, 12, 24, and 48 hours. Serum was extracted by centrifugation at 2000 rpm for 15 min and stored at −20 C until determination of testosterone/LH levels. Rat plasma testosterone was determined using Active™ Testosterone RIA DSL-4000 kits purchased from Diagnostic Systems, Inc. Webster, Tex. To effect a sufficient washout period the doses were administered at weekly intervals.
A total of six rats were used for each dose tested. In the first week, each rat received a single dose of 15 μg. In the second week, the dose increased to 30 μg. Next, in the third week, each rat received a single dose of 60 μg. Table 2 is the control rat group with a total of 2 rats that received only vehicle.

Row | Molecule | time to dissolve ([1]; 50 mg in 2 mL purified water, relatively gentle mixing, room temperature) | pH of the solution ([1]; 50 mg in 5 mL water (10 mg/mL)) | testosterone level reached after the castration period (testosterone; 15 μg/rat, after about 12 hours) [ng/mL] | duration of chemical castration of testosterone (≦0.5 ng/ml) (testosterone; 15 μg/rat, single dose) | serum testosterone level at 6 hours (testosterone; 15 μg/rat, single dose, week 1, mean of 6 rats) [ng/mL] | testosterone level by 24 hours (testosterone; 30 μg/rat, single dose) | duration of testosterone suppression (testosterone; 30 μg/rat, single dose, week 2) | solubility ([1]; aqueous media, even at a pH lower than 5, read-out: solubility in aqueous media) [µg/mL] | gelling in aqueous media ([1]; at concentrations less than 5 mg/mL) | solubility ([1]; water, pH 5, at a pH of 5, read-out: water solubility) [µg/mL]
1 | AcDNal^1, DpCIPhe^2, D3Pal^3 Ser^4, NicLys^5, D(6ANic)Orn^6, Leu^7, IprLys^8, Pro^9, DAla^10NH2 [novel GnRH antagonist] | less than 30 seconds | 5.4 | 1.5 | about 12 hours | 0.2 | greater than 0.5 ng/mL | at least 12 hours |  |  | 
2 | CC(=O)N[C@H](Cc1cccc2ccccc12)C(=O)N[C@H](Cc1ccc(Cl)cc1)C(=O)N[C@H](Cc1cccnc1)C(=O)N[C@@H](CO)C(=O)N[C@@H](CCCCNC(=O)c1ccccn1)C(=O)N[C@H](CCCNC(=O)c1ccc(N)nc1)C(=O)N[C@@H](CC(C)C)C(=O)N[C@@H](CCCCNC(C)C)C(=O)N1CCC[C@H]1C(=O)N[C@H](C)C(N)=O [orntide acetate, DNal^1, DpCIPhe^2, D3Pal^3 Ser^4, PicLys^5, D(6ANic)Orn^6, Leu^7, IprLys^8, Pro^9, DAla^10-NH2] (Ac-[d1Nal][dPhe(4-Cl)][d3Pal]SK(Picolinoyl)[dOrn](Nicotinoyl(6-NH2))L[Lys(iPr)]P[dA]-NH2; N-terminus and C-terminus assumed) |  |  |  |  |  |  |  | < 5000 | tends to gel even at that low concentration | < 5000
